Results taken from paper PMC11822212, “High-throughput screening identifies Aurora kinase B as a critical therapeutic target for Merkel cell carcinoma” (Nature Communications, 2025).
Like-named read-outs stand apart in the source and are kept apart here.

How the values were obtained:
MCC13 cells (VN-MCC) = test: qHTS cell viability (CellTiter-Glo, 72 h; primary and follow-up small molecule screen); type: cell-based, human
HACAT cells = test: qHTS cell viability (CellTiter-Glo, 72 h; primary screen), control cell line; type: cell-based, human
[1] = test system: VN-MCC cell lines (MCC13, MCC26, UISO); test: qHTS cell viability, VN-MCC cell lines as a group (mean AUC, VN.MCC.avg); type: cell-based, human
HEK293T cells = test: qHTS cell viability (CellTiter-Glo, 72 h; primary screen), control cell line; type: cell-based, human
[2] = test system: six MCC cell lines and four control cell lines; test: qHTS cell viability, all 10 cell lines screened; type: cell-based
[3] = test system: MCC cell lines (WAGA, MKL-1, MKL-2, MCC13, MCC26, UISO); test: qHTS cell viability, all six MCC cell lines as a group (mean AUC, MCC.avg); type: cell-based, human
UISO cells (VN-MCC) = test: qHTS cell viability (CellTiter-Glo, 72 h; primary and follow-up small molecule screen); type: cell-based, human
NIH-3T3 cells = test: qHTS cell viability (CellTiter-Glo, 72 h; primary screen), control cell line; type: cell-based, mouse
[4] = test system: control cell lines (HACAT, HEK293T, CRL-7250, NIH-3T3); test: qHTS cell viability, control cell lines as a group (mean AUC, Control.avg); type: cell-based
WAGA cells (VP-MCC) = test: qHTS cell viability (CellTiter-Glo, 72 h; primary and follow-up small molecule screen); type: cell-based, human
MKL-1 cells (VP-MCC) = test: as above; type: cell-based, human
[5] = test system: VP-MCC cell lines (WAGA, MKL-1, MKL-2); test: qHTS cell viability, VP-MCC cell lines as a group (mean AUC, VP.MCC.avg); type: cell-based, human
MCC26 cells (VN-MCC) = test: qHTS cell viability (CellTiter-Glo, 72 h; primary and follow-up small molecule screen); type: cell-based, human
MKL-2 cells (VP-MCC) = test: as above; type: cell-based, human
CRL-7250 cells = test: qHTS cell viability (CellTiter-Glo, 72 h; primary screen), control cell line; type: cell-based
[6] = MIPE library, 11-point DRC, sheet S2E
[7] = MIPE library, 11-point DRC, control cell line, sheet S2E

## CC(=O)O[C@]1(C(C)=O)CC[C@H]2[C@@H]3C=C(C)C4=CC(=O)CC[C@]4(C)[C@H]3CC[C@@]21C [Megestrol acetate]
MCC13 cells (VN-MCC); [6]
  MCC13_AUC: 479.341
MCC13 cells (VN-MCC); area under the dose-response curve, MCC13 cells, AUC<450 = reduced viability
  MCC13_AUC: 479.661
MCC13 cells (VN-MCC); follow-up screen, MCC13, replicate 1
  Area under the dose-response curve (AUC) MCC13 Replicate 1: 522.1
MCC13 cells (VN-MCC); follow-up screen, MCC13, replicate 2
  Area under the dose-response curve (AUC) MCC13 Replicate 2: 498.9
MCC13 cells (VN-MCC); follow-up screen, MCC13, replicate 3
  Area under the dose-response curve (AUC) MCC13 Replicate 3: 453.4
HACAT cells; [7]
  HACAT_AUC: 434.851
HACAT cells; area under the dose-response curve, HACAT control cells, AUC<450 = reduced viability
  HACAT_AUC: 455.962
[1]; MIPE library, Control AUC minus VN-MCC AUC (therapeutic window), sheet S2E
  Control-VN-MCC: -9.613
[1]; MIPE library, mean AUC of VN-MCC cell lines, sheet S2E
  VN-MCC_Avg_AUC: 473.519
HEK293T cells; [7]
  HEK293T_AUC: 472.9
HEK293T cells; area under the dose-response curve, HEK293T control cells, AUC<450 = reduced viability
  HEK293T_AUC: 457.911
[2]; MIPE library, Control AUC minus MCC AUC (therapeutic window), sheet S2E
  Control-MCC: 39.5225
[3]; MIPE library, mean AUC of six MCC cell lines, sheet S2E
  MCC_Avg_AUC: 424.384
UISO cells (VN-MCC); [6]
  UISO_AUC: 463.276
UISO cells (VN-MCC); area under the dose-response curve, UISO cells, AUC<450 = reduced viability
  UISO_AUC: 481.624
UISO cells (VN-MCC); follow-up screen, UISO, replicate 1
  Area under the dose-response curve (AUC) UISO Replicate 1: 487.9
UISO cells (VN-MCC); follow-up screen, UISO, replicate 2
  Area under the dose-response curve (AUC) UISO Replicate 2: 467.2
UISO cells (VN-MCC); follow-up screen, UISO, replicate 3
  Area under the dose-response curve (AUC) UISO Replicate 3: 452.8
NIH-3T3 cells; [7]
  NIH3T3_AUC: 472.047
NIH-3T3 cells; area under the dose-response curve, NIH3T3 control cells, AUC<450 = reduced viability
  NIH3T3_AUC: 478.678
[4]; MIPE library, mean AUC of control cell lines, sheet S2E
  Control_Avg_AUC: 463.906
WAGA cells (VP-MCC); [6]
  WAGA_AUC: 348.793
WAGA cells (VP-MCC); area under the dose-response curve, WAGA cells, AUC<450 = reduced viability
  WAGA_AUC: 442.363
WAGA cells (VP-MCC); follow-up screen, WAGA, replicate 1
  Area under the dose-response curve (AUC) WAGA Replicate 1: 536.2
WAGA cells (VP-MCC); follow-up screen, WAGA, replicate 2
  Area under the dose-response curve (AUC) WAGA Replicate 2: 483.3
WAGA cells (VP-MCC); follow-up screen, WAGA, replicate 3
  Area under the dose-response curve (AUC) WAGA Replicate 3: 478.6
MKL-1 cells (VP-MCC); [6]
  MKL1_AUC: 380.312
MKL-1 cells (VP-MCC); area under the dose-response curve, MKL-1 cells, AUC<450 = reduced viability
  MKL1_AUC: 437.052
MKL-1 cells (VP-MCC); follow-up screen, MKL-1, replicate 1
  Area under the dose-response curve (AUC) MKL-1 Replicate 1: 482.4
MKL-1 cells (VP-MCC); follow-up screen, MKL-1, replicate 2
  Area under the dose-response curve (AUC) MKL-1 Replicate 2: 475.6
MKL-1 cells (VP-MCC); follow-up screen, MKL-1, replicate 3
  Area under the dose-response curve (AUC) MKL-1 Replicate 3: 473.0
[5]; MIPE library, Control AUC minus VP-MCC AUC (therapeutic window), sheet S2E
  Control-VP-MCC: 88.658
[5]; MIPE library, mean AUC of VP-MCC cell lines, sheet S2E
  VP-MCC_Avg_AUC: 375.248
MCC26 cells (VN-MCC); [6]
  MCC26_AUC: 477.94
MCC26 cells (VN-MCC); area under the dose-response curve, MCC26 cells, AUC<450 = reduced viability
  MCC26_AUC: 486.411
MCC26 cells (VN-MCC); follow-up screen, MCC26, replicate 1
  Area under the dose-response curve (AUC) MCC26 Replicate 1: 464.5
MCC26 cells (VN-MCC); follow-up screen, MCC26, replicate 2
  Area under the dose-response curve (AUC) MCC26 Replicate 2: 445.6
MCC26 cells (VN-MCC); follow-up screen, MCC26, replicate 3
  Area under the dose-response curve (AUC) MCC26 Replicate 3: 484.7
MKL-2 cells (VP-MCC); [6]
  MKL2_AUC: 396.638
MKL-2 cells (VP-MCC); area under the dose-response curve, MKL-2 cells, AUC<450 = reduced viability
  MKL2_AUC: 447.482
MKL-2 cells (VP-MCC); follow-up screen, MKL-2, replicate 1
  Area under the dose-response curve (AUC) MKL-2 Replicate 1: 460.3
MKL-2 cells (VP-MCC); follow-up screen, MKL-2, replicate 2
  Area under the dose-response curve (AUC) MKL-2 Replicate 2: 492.7
MKL-2 cells (VP-MCC); follow-up screen, MKL-2, replicate 3
  Area under the dose-response curve (AUC) MKL-2 Replicate 3: 490.0
CRL-7250 cells; [7]
  CRL7250_AUC: 475.825
CRL-7250 cells; area under the dose-response curve, CRL7250 control cells, AUC<450 = reduced viability
  CRL7250_AUC: 475.174

## N[C@@H](Cc1ccc(N(CCCl)CCCl)cc1)C(=O)O [Melphalan]
MCC13 cells (VN-MCC)
  MCC13_AUC: 467.949
HACAT cells
  HACAT_AUC: 448.936
[1]
  Control-VN-MCC: 9.639
  VN-MCC_Avg_AUC: 446.303
HEK293T cells
  HEK293T_AUC: 460.279
[2]
  Control-MCC: 36.0029
[3]
  MCC_Avg_AUC: 419.939
UISO cells (VN-MCC)
  UISO_AUC: 405.245
NIH-3T3 cells
  NIH3T3_AUC: 465.754
[4]
  Control_Avg_AUC: 455.942
WAGA cells (VP-MCC)
  WAGA_AUC: 417.577
MKL-1 cells (VP-MCC)
  MKL1_AUC: 386.049
[5]
  Control-VP-MCC: 62.3672
  VP-MCC_Avg_AUC: 393.574
MCC26 cells (VN-MCC)
  MCC26_AUC: 465.715
MKL-2 cells (VP-MCC)
  MKL2_AUC: 377.097
CRL-7250 cells
  CRL7250_AUC: 448.797

## Cc1cc(OCCOCC[N+](C)(C)Cc2ccccc2)ccc1C(C)(C)CC(C)(C)C.[Cl-] [Methylbenzethonium chloride]
MCC13 cells (VN-MCC); NPC library, qHTS dose-response AUC, MCC13
  MCC13_AUC: 479.749
HACAT cells; NPC library, qHTS dose-response AUC, HACAT control
  HACAT_AUC: 428.465
[1]; NPC library, mean AUC of VN-MCC cell lines
  VN-MCC_Avg_AUC: 436.818
[1]; NPC library, therapeutic window: Control avg AUC minus VN-MCC avg AUC
  Control-VN-MCC: -21.8625
HEK293T cells; NPC library, qHTS dose-response AUC, HEK293T control
  HEK293T_AUC: 317.092
[2]; NPC library, therapeutic window: Control avg AUC minus MCC avg AUC
  Control-MCC: 76.0988
[3]; NPC library, mean AUC of six MCC cell lines
  MCC_Avg_AUC: 338.857
UISO cells (VN-MCC); NPC library, qHTS dose-response AUC, UISO
  UISO_AUC: 375.218
NIH-3T3 cells; NPC library, qHTS dose-response AUC, NIH3T3 control
  NIH3T3_AUC: 469.697
[4]; NPC library, mean AUC of control cell lines
  Control_Avg_AUC: 414.956
WAGA cells (VP-MCC); NPC library, qHTS dose-response AUC, WAGA
  WAGA_AUC: 200.731
MKL-1 cells (VP-MCC); NPC library, qHTS dose-response AUC, MKL1
  MKL1_AUC: 312.601
[5]; NPC library, mean AUC of VP-MCC cell lines
  VP-MCC_Avg_AUC: 240.895
[5]; NPC library, therapeutic window: Control avg AUC minus VP-MCC avg AUC
  Control-VP-MCC: 174.06
MCC26 cells (VN-MCC); NPC library, qHTS dose-response AUC, MCC26
  MCC26_AUC: 455.487
MKL-2 cells (VP-MCC); NPC library, qHTS dose-response AUC, MKL2
  MKL2_AUC: 209.354
CRL-7250 cells; NPC library, qHTS dose-response AUC, CRL7250 control
  CRL7250_AUC: 444.568
